Results published in patent US12291504B2 (University of Pittsburgh—Of the Commonwealth System of …, priority 2018, dated 2025).
Like-named read-outs stand apart in the source and are kept apart here.

Tests used:
SULT1A3 L67G = molecular target: T1, SULT1A3 L67G (Homo sapiens, UniProt P0DMM9, L67G); experiment: Binding-site mutation effect on Ki CMP8, L67G; assay type: biochemical; conditions: L67G versus wild type
T1 construct: N-His/GST/MBP triple-tag (N, cleaved yes); made in house; host or cells: E. coli BL21(DE3)
Procedure: (§1) Initial-Rate Studies. Initial-rate parameters for the labeled or mutant SULT1A3 constructs were determined using a previously described 1-HP assay (25). Briefly, reactions were initiated by addition of PAPS (0.50 mM, 17×Km) to a solution containing enzyme (20 nM, active sites), 1-HP (2.0 μM, ˜24×Km), and KPO4 (50 mM), pH 7.5, 25±2° C. Reactions were monitored via fluorescence change associated with the conversion of 1-HP to 1-HP-S (λex=325 nm, λem=370 nm). Keq for the 1-HP sulfonation reaction is −250. Given the reaction conditions outlined above, ≥99% of 1-HP is converted to 1-HP-S, and ˜0.4% of PAPS is converted to PAP at equilibrium. […] Reaction progress curves were analyzed to obtain initial-rate parameters as described previously (26,27).
(§2) Inhibition studies. Inhibition parameters were determined under conditions identical to those described above (see, Initial-Rate Studies) except that [1-HP] was increased to 5.0 μM (˜61×Km) and inhibitor concentration was varied between 0.20-20×Ki. Ki was obtained using a least-squares fit to the following partial inhibition equation (25,28): v=kcat·(Ki+(1/kcat inh)·[I])/(Ki+[I]), where kcat inh is enzyme turnover at saturating substrates and allosteric inhibitor.
Confirming the Structure. The structure was validated by testing its ability to predict the consequences of mutations on the initial-rate parameters of the enzyme. […]

SULT1A3 [1] = molecular target: T2, SULT1A3 (Homo sapiens, UniProt P0DMM9); experiment: SULT1A3 inhibition studies, 1-HP initial-rate fluorescence assay; assay type: biochemical; parameters: Wild-type and mutant SULT1A3 coding regions were inserted into a pGEX-6P expression vector; N-His/GST/MBP triple-tag (N, cleaved yes); made in house; host or cells: E. coli BL21(DE3); inhibition: dose or concentration left out as unconfirmed; conditions: for inhibition: read-out: SULT1A3 Enzyme Inhibition at Saturation/%
Procedure: The initial rates of SULT catalyzed 1-HP sulfonation are plotted as a function of inhibitor concentration, and are normalized relative to [inhibitor]=0. Enzyme activity was monitored by the sulfonation dependent change in 1-HP fluorescence (λex=325 nm, λem=370 nm). Less than 5% of the concentration-limiting substrate converted at the reaction endpoint was consumed during initial-rate measurements. Each point is the average of three independent determinations. Conditions: SULT (20 nM, active sites), PAPS (0.50 mM, 17×Km), 1-HP (5.0 μM, 61×Km), KPO4 (50 mM), pH 7.5, 25±2° C.
as §1, §2
as §1, with “(47).” for “(25).”, “˜250.” for “−250.”, “(48,49).” for “(26,27).”
as §2, with “(47,50): V/Vax=(Ki+α·[I])/(Ki+[I]),” for “(25,28): v=kcat·(Ki+(1/kcat inh)·[I])/(Ki+[I]),”, “α” for “kcat inh”, “is percentage of” for “is”, “turnover remaining” for “turnover”

SULT1A3 [2] = molecular target: T2, SULT1A3; experiment: Pre-steady state binding of PAP to SULT1A3 (stopped-flow fluorescence); parameters: Wild-type and mutant SULT1A3 coding regions were inserted into a pGEX-6P expression vector; N-His/GST/MBP triple-tag (N, cleaved yes); made in house; host or cells: E. coli BL21(DE3); conditions: PAP release, saturating CMP8
Procedure: The effect of CMP8 on PAP binding to SULT1A3 was monitored using a stopped-flow spectrofluorimeter (λex=290 nm, λem≥330 nm (cutoff filter)). […] Each kobs value was determined in triplicate and the averaged values are shown. kon and koff are given, respectively, by the slopes and intercepts obtained from linear least-squares fitting of the kobs vs [PAP] plots.
(§3) Pre-Steady State Binding Studies. The pre-steady state binding of PAP to SULT1A3 was monitored via ligand-induced enzyme fluorescence changes in SULT1A3 using an Applied Photophysics SX20 stopped-flow spectrofluorimeter (32). […] All reactions were pseudo first order in [PAP]. The observed rate constant (kobs) at a given [PAP] was taken as the average of three independent progress curves each obtained from a single-exponential fit of 6-9 averaged, binding progress curves. The rate constants, kon and koff, were obtained from the slopes and intercepts predicted by linear least-squares analysis of four-points kobs vs [PAP] plots.
Given that CMP8 interacts with the SULT1A3 cap, it was reasoned it might inhibit by stabilizing the cap-closed form(s) of the enzyme. To test this hypothesis, the microscopic rate constants for nucleotide binding and release were determined in the presence and absence of saturating CMP8. The binding reactions were monitored via intrinsic fluorescence changes associated with ligand binding (30-32) (see, Methods). The resulting kobs vs [PAP] plots are presented in FIG. 4. kon and koff are obtained, respectively, from the slopes and intercepts of the plots (30,31), see Table C. […] Thus, CMP8 does indeed slow nucleotide release by increasing Kiso and thus stabilizing the closed form of the cap.
as §3, with “(29).” for “(32).”

[3] = ND = inhibition was not detected at 30 μM compound, parentheses one standard error, read-out: SULT1A3 Ki/μM

T2 sequence (P0DMM9 whole entry): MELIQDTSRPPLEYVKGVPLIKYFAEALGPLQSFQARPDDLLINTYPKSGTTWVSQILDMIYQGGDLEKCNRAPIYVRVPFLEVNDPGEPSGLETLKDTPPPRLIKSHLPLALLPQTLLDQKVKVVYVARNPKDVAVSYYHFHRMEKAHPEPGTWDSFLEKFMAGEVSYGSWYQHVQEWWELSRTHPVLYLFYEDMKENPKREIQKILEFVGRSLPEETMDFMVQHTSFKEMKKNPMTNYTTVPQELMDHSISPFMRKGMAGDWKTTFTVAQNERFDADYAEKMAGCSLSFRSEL
T1 sequence (P0DMM9 whole entry L67G): as the sequence (P0DMM9 whole entry) above, with L67G counted along it

Row | increase in Ki CMP8 (SULT1A3 L67G) [fold] | Ki (SULT1A3 [1]; FIG. 1, read-out: Ki of CMP8 for SULT1A3) [µM] | Ki (SULT1A3 [1]; [3]) [µM] | Ki (SULT1A3 [1]; WT enzyme, parentheses one standard deviation, read-out: Ki CMP8) [µM] | alleviation of inhibition by epigallochatechin gallate or mefenamic acid (SULT1A3 [1]; competition against near-total inhibitors of the catechin and NSAID sites) | inhibition (SULT1A3 [1]; parentheses one standard error) [%] | SULT1A3 turnover at saturation relative to absence of inhibitor (SULT1A3 [1]; partial inhibitor, at saturation) [%] | kcat (+CMP8)/kcat (−CMP8) (SULT1A3 [1]; saturating CMP8) | koff (+CMP8)/koff (−CMP8), ratio of nucleotide off-rate constants (SULT1A3 [2]) | affinity for SULT1A3 (in words) (SULT1A3 [1]) | Ki (SULT1A3 [1]; standard error in neighbouring cell, read-out: Human (1A3) Ki) [µM] | inhibition at saturation (SULT1A3 [1]; text b218) [%] | Compound
1 | 5.3 | 0.034 | 0.034 | 0.034 | did not alleviate inhibition | 54 | 46 | 0.46±0.08 | 0.41 (±0.05) |  |  |  | CC(C)Cc1ccc2cc(CO)ccc2n1 [Compound 8, (2-Isobutylquinolin-6-yl)methanol]
2 |  |  | 0.069 |  |  | 83 |  |  |  | low micromolar affinity | 0.05 | 83 | CC(C)Cc1ccc2cc(CCC(N)=O)ccc2n1 [Compound 12]
